Measured values reported in patent US8377883B2, “Peptide for anti-angiogenesis and use thereof” (Beijing Institute for Cancer Research, priority 2006, dated 2013).

Assays:
[1] = system: pig aorta endothelial cells (PAEC); assay: MTT proliferation of pig aorta endothelial cells; type: cell-based; conditions: similar experiment to HUVEC MTT
[2] = system: human colon cancer HT-29 cells; assay: Tumor suppression in human colon cancer HT-29 tumor-bearing nude mice model; type: in vivo, Balb/c nude mice; conditions: 50 μg/100 μl PBS/injection, angulus oculi medialis vein once every other day, 10 times; vs vehicle, P<0.05
Description: In order to confirm the biological effects of FpAT on the growth of human deriving tumors in nude mice in vivo, a tumor suppression experiment was carried out in this example using human gastric carcinoma BGC-823 cells tumor-bearing nude mice model, human lung cancer PG cells tumor-bearing nude mice model and human colon cancer HT-29 cells tumor-bearing nude mice model.
Twenty 5-week old Balb/c nude mice purchased from Animal Center Of Chinese Academy Of Medical Sciences were inoculated subcutaneously in forelimb with human gastric carcinoma BGC-823 cells (National Institute for the Control of Pharmaceutical and Biological Products) (5×10^6/100 μl/mouse), human lung cancer PG cells (National Institute for the Control of Pharmaceutical and Biological Products) (5×10^6/100 μl/mouse) or human colon cancer HT-29 cells (ATCC® Number: HTB-38™) (5×10^6/100 μl/mouse). On the next day after inoculation, each kind of inoculated cells were divided into 2 groups randomly with 5 mice per group. […] Observation was continued for another 20 days after administration was stopped, and during this period the long and short diameters of the tumors were measured with a vernier caliper once every three days, and the volumes of the tumor mass were calculated according to formula ½×long diameter×short diameter^2. […]

[3] = system: human umbilical vein endothelial cells (HUVECs); assay: Three-dimensional tubular structure formation of HUVECs; type: cell-based; conditions: 10, 25, 100 μg/ml PBS; 48, 72, 96 hours
Description: (§1) Human umbilical cord samples (obtained from Beijing Obstetrics & Gynecology Hospital) was digested with 0.1% collagenase I (available from GIBCO BRL company), followed by a centrifugation (1000 rpm, 10 minutes) to collect human umbilical vein endothelial cells (HUVECs). After suspended in 20% FCS/RPMI1640, the cells were transferred into plastic bottles for culture in CO2 incubator (37° C., 5% CO2). Twelve hours later, unattached cells were discarded by changing medium, and then the remaining cells were cultured conventionally with the medium changed every 3 days. The cultured HUVECs were digested with 0.04% trypsin-EDTA, and inoculated into 24-well plate at 2×10^4 cells/well; and the vehicle (PBS) and FpAT (10 μg/ml PBS, 25 μg/ml PBS, 100 μg/ml PBS) were added separately, with 3 parallel wells per group.

[4] = system: human umbilical vein endothelial cells (HUVECs); assay: MTT proliferation of HUVECs; type: cell-based; conditions: 25 μg/ml PBS, MTT at 24, 48, 72, 96 hours
Description: In order to further investigate the effects of FpAT on the proliferation of various vascular endothelial cells, a cell proliferation suppression experiment was carried out using MTT method in this example.
as §1, with “into 96-well” for “into 24-well”, “at 2×10^3 cells/well. After 24 hours of culture,” for “at 2×10^4 cells/well; and”, “FpAT (25” for “FpAT (10 μg/ml PBS, 25 μg/ml PBS, 100”, “with 4” for “with 3”, “group. […] After mixed well, OD value (measured at a wavelength of 570 nm) of each well was measured in a microplate reader, and the cell suppression rates were calculated according to the following formula: cell suppression rate=(mean OD value of blank control group-mean OD value of treated group)/mean OD value of blank control group×100%.” for “group.”

osteosarcoma S180 cells = assay: Tumor suppression in osteosarcoma S180 cells tumor-bearing mouse model (Example 4); type: in vivo, mice of Kunming strain; conditions: 50 m/1000 PBS/injection, angulus oculi medialis vein daily, 7 times; vs PBS control, P<0.05
Description: To confirm the biological effects of FpAT on the growth of mice deriving tumor in mice in vivo, a tumor suppression experiment was carried out in this example using liver cancer H22 cells tumor-bearing mouse model of mice of Kunming strain and osteosarcoma S180 cells tumor-bearing mouse model of mice of Kunming strain. Forty 5-week old mice of Kunming strain purchased from Animal Center Of Chinese Academy Of Medical Sciences were inoculated subcutaneously in forelimb with mouse liver cancer H22 cells (National Institute for the Control of Pharmaceutical and Biological Products) (5×10^6/100 μl/mouse) or osteosarcoma S180 cells (National Institute for the Control of Pharmaceutical and Biological Products) (5×10^6/100 μl/mouse). On the next day after inoculation, each kind of inoculated cells were divided into 2 groups randomly with 10 mice per group. FpAT ([…]) or vehicle (the solvent for peptide) control (PBS:100 μl/injection) were injected in angulus oculi medialis vein daily, 7 times in total. The mice were sacrificed by dislocating the neck on the next day after administration was stopped, and the tumors were taken and weighed for a statistical analysis.

[5] = system: D2F2 cells (Balb/c mouse-derived breast carcinoma cell); assay: MTT proliferation of D2F2 cells; type: cell-based; conditions: 25 μg/ml PBS, ninety six hours
Description: To investigate direct effects of FpAT on tumor cells in vitro, the influence of FpAT on the proliferation of D2F2 cell (Balb/c mouse-derived breast carcinoma cell) was examined using MTT in this example.
D2F2 cells (Mahoney K H, Miller B E, Heppner G H. FACS quantitation of leucine aminopeptidase and acid phosphatase on tumor-associated macrophages from metastatic and nonmetastatic mouse mammary tumors. J Leukoc Biol. 1985 November; 38(5): 573-85.) were cultured conventionally. The cultured D2F2 cells were digested with 0.04% trypsin-EDTA, and inoculated into 96-well plate at 3×10^3 cells/well; after 24 hours of culture, PBS and FpAT (25 μg/ml PBS) were added separately, with 4 parallel wells per group. Ninety six hours later, 20 μl MTT solution of mass concentration of 5 mg/ml was added to each well. After the culture was performed continuously for 4 hours, the original culture medium was discarded and 200 μl DMSO was added to each well, and then it was shaken for 15 minutes. After mixed well, OD value (measured at a wavelength of 570 nm) of each well was measured in a microplate reader, and the cell suppression rates were calculated according to the following formula: cell suppression rate=(mean OD value of blank control group−mean OD value of treated group)/mean OD value of blank control group×100%.

Substance: H2N-Asp-Ser-Gly-Glu-Gly-Asp-Phe-Leu-Ala-Glu-Gly-Gly-Gly-Val-Arg-COOH (H-DSGEGDFLAEGGGVR-OH; listed as Homo sapiens) [FpAT, fibrinopeptide A truncated, carboxyl terminal 15 amino acids of fibrinopeptide A]
- suppression of PAEC proliferation [1]: came to a same conclusion
- growth of human colon cancer HT-29 cells in nude mice (tumor mass) [2]: could suppress the growths
- ability to form a three-dimensional and tubular structure of HUVECs [3]: can suppress specifically
- suppressing rate of HUVEC proliferation [4]: 40.1%
- growth of osteosarcoma S180 cells in vivo (tumor mass) (osteosarcoma S180 cells): could suppressed the growths
- suppression of D2F2 cell proliferation [5]: can not suppress D2F2 cells in vitro
